Experimental data taken from patent US12496303B2, “Conditioning agents for use in allogeneic hematopoietic stem cell transplantation” (priority 2020, dated 2025).

Assays:
[1] = minor- and major-mismatched alloHSCT models, summary statements; assay type: in vivo, mouse
Source text: This example describes the combination of JAK1/JAK2 (JAK1/2) inhibitors and CD45-ADC.

[2] = miHA-mismatched allo-HSCT (BALB/c-Ly5.1→DBA/2); assay type: in vivo, mouse; conditions: CD45-SAP conditioning plus daily baricitinib
Description: (§1) To investigate the efficacy of ADCs for allo-HSCT conditioning, two transplant models were used (see e.g., FIG. 2A): a miHA-mismatched BALB/c-Ly5.1→DBA/2 model and a haploidentical CB6F1→B6 (F1-to-parent) model MHC-mismatched for H-2d in the host-versus-graft direction. CD45-SAP was chosen for conditioning in these studies to leverage its lymphodepleting activity to overcome graft rejection.
(§2) Mice were injected with CD45-SAP or cKit-SAP at doses indicated in each figure at 7 days pre-transplant (d-7). In general, 3 mg/kg (75 μg) CD45-SAP, and 0.4 mg/kg or 2 mg/kg (10 or 50 μg, respectively) cKit-SAP were used. On transplant day (d0), mice received 10×10^6 whole donor bone marrow cells via the retroorbital injection.
(§3) CD4^+ and CD8^+ T cell depletion was done using clones GK1.5 and YTS169.4, respectively, and NK cell depletion done using clone PK136. […] All antibodies were administered intraperitoneally at 250 μg per dose following the schema for each experiment.
(§4) Immediately prior to injection, these DMSO stocks were thawed, diluted 1:10 in PBS, and injected at 200 μl/mouse subcutaneously (400 μg daily dose).

[3] = MHC-mismatched haploidentical allo-HSCT (CB6F1→B6); assay type: in vivo, mouse
Description: as §1, §2, §3, §4
ALZET subcutaneous osmotic pumps (Model 2004) were used to continuously deliver JAK1/2 inhibitors to mice for 28 days at a rate of 0.25 μL/hour (6 μL/day). A vehicle of 50% dimethyl sulfoxide (DMSO)/50% polyethylene glycol 400 (PEG-400) was used for all experiments. JAK1/2 inhibitors were prepared at 2× concentration (133.3 mg/mL) in 100% DMSO then diluted to 1× with an equal volume of PEG-400 (66.7 mg/mL, 400 μg total daily dose). Prepared compounds were then loaded into osmotic pumps per the manufacturer's instructions and surgically implanted in accordance with our IACUC-approved protocol.

[4] = fully MHC-mismatched allo-HSCT (BALB/c→B6), preliminary; assay type: in vivo, mouse; conditions: continuous baricitinib plus CD45-SAP conditioning, preliminary (not shown)
Source text: Continued optimization of our conditioning regimens aims to achieve robust, high-level engraftment in fully haploidentical (F1-to-F1) and fully MHC-mismatched allo-HSCT.

[5] = system: NK cell-mediated rejection; experiment: parent-to-F1 allo-HSCT (B6→CB6F1), NK cell-mediated rejection; assay type: in vivo, mouse; conditions: CD45-SAP plus baricitinib
Description: as §2, §3, §4

[6] = acute effects of four days daily baricitinib on blood and lymphoid organs; assay type: in vivo, B6 mice
Source text: FIG. 16A-FIG. 16G. […] The color scheme in the legend (upper-right) is used throughout the figure. (A and B) Complete blood counts (A) and organ cellularity of spleen and bone marrow (B). (C) Proportions of HSPC subsets in bone marrow. (D) Absolute B, T, and myeloid (Gr1+ and/or CD11b+) cell counts in spleen, blood, and bone marrow. (E) Frequencies of FoxP3+ Tregs (relative to total CD4+ T cells) in spleen, blood and bone marrow. (F and G) Cell surface phenotyping of splenic T cells (F) and APCs (G). Data points and error bars represent mean±SEM, with mice pooled across 3 experiments. For statistical comparison: ns=not significant, * is p<0.05, ** is p<0.01, *** is p<0.001, and **** is p<0.0001.
as §4

[7] = solubility testing of baricitinib in osmotic pump vehicles; assay type: physicochemical
[8] = system: IL-15-stimulated B6 splenic NK cells; experiment: functional assays of cytokine-stimulated splenic NK cells; assay type: cell-based, mouse
Description: FIG. 5A-FIG. 5H. […] Data points and error bars represent mean±SEM.
Cytokine concentrations in culture supernatant or mouse plasma were measured with the LegendPLEX Inflammation Panel (13-plex) or the Mouse Th1 Panel (5-plex) per the manufacturer protocols (BioLegend). Quantification was done using LegendPLEX software v8.0 for Windows. If a cytokine concentration was too low to be quantified, the sample was assigned the value of the lower limit of quantitation. For intracellular IFNγ analysis of splenic NK cells, cells were cultured in K10 media with or without cytokine stimulation for 15 hours, with 5 μg/mL Brefeldin A (BioLegend) added to each well for the last 2.5 hours. After this incubation period, cells were fixed, saponin-permeabilized, and stained as described above.

[9] = system: αCD3-stimulated B6 T cells; experiment: αCD3-stimulated CFSE-labeled T cell culture; assay type: cell-based, mouse; conditions: 72 hours, highest tested dose
Description: FIG. 4A-FIG. 4E. […] (B) Donor chimerism in spleen and bone marrow of mice from panel (A). […] (D) Proliferation and viability of cultures in (C). (E) Cytokines present in supernatants collected from cultures described in (C) after 24 hours incubation. For (C-E), data from three technical replicates are shown from one representative of four experiments. For all panels, data points and error bars represent mean±SEM.
For ex vivo stimulation of primary mouse T cells, 1×10^5 T cells purified from spleen and lymph nodes with the EasySep Mouse T cell Isolation Kit (Stem Cell Technologies; Vancouver, BC, Canada) were cultured with 4×10^5 T-depleted splenocytes in 96-well round bottom plates in R10 media with 1 μg/mL αCD3. Supernatants were collected for cytokine analysis after 24 hours incubation, and cultured cells were analyzed for expansion by flow cytometry at 72 hours.
Cytokine concentrations in culture supernatant or mouse plasma were measured with the LegendPLEX Inflammation Panel (13-plex) or the Mouse Th1 Panel (5-plex) per the manufacturer protocols (BioLegend). Quantification was done using LegendPLEX software v8.0 for Windows. If a cytokine concentration was too low to be quantified, the sample was assigned the value of the lower limit of quantitation. […]

[10] = CD45-ADC single dose d-7 plus baricitinib for 3-4 weeks

**Q.** Which results are given for `CCS(=O)(=O)N1CC(CC#N)(n2cc(-c3ncnc4[nH]ccc34)cn2)C1` [baricitinib]?
**A.** donor chimerism [1, 10]: up to 90%; share of treated mice achieving the donor chimerism [1, 10]: at least 70 % of the mice; donor chimerism, multilineage alloengraftment ([1]; CD45-targeted ADCs combined with baricitinib): 80-90%; overall multilineage donor chimerism of engrafted mice [2]: ~80%; overall donor chimerism ([3]; CD45-SAP plus continuously-infused baricitinib (osmotic pump, 400 μg daily)): > 80%; overall donor chimerism ([3]; CD45-SAP, daily baricitinib and pre-transplant pan-TCD): > 90%; engraftment rate ([3]; continuous baricitinib plus CD45-SAP): ~70%; engraftment success [4]: ~25%; overall donor chimerism [5]: ~60%; immunophenotyping of splenic T cell and APC compartments ([6]; baricitinib- vs vehicle-treated): no differences; B cells in spleens ([6]; daily baricitinib 4 days): lower frequencies of B cells; CBCs or bone marrow cellularity ([6]; daily baricitinib 4 days): minimally affected; bone marrow HSPC numbers ([6]; daily baricitinib 4 days): largely unaffected; spleen cellularity ([6]; daily baricitinib 4 days): significant reduction; frequencies of long-term HSC and megakaryocyte-erythroid progenitors ([6]; daily baricitinib 4 days, bone marrow): somewhat lower frequencies; solubility ([7]; DMSO mixed 1:1 with PEG-400): readily soluble; solubility after incubation ([7]; DMSO/PEG-400 vehicle, 30-day incubation at 37° C.): remained soluble; nonspecific toxicity in unstimulated NK cultures [8]: modest and noted only at the highest baricitinib doses; cell death in unstimulated cultures [9]: only subtly increased
